Measurements taken from ChEMBL document CHEMBL1201862, “PubChem BioAssay data set” (2004).
The source made the active and inactive calls.

Key:
[1] = molecular target: T1, High affinity choline transporter 1 (Homo sapiens, UniProt Q9GZV3); experiment: CHT activators, dose response, cell-based, 10-point CRC, membrane potential dye (AID 602376); assay type: functional
T1 sequence (Q9GZV3 whole entry): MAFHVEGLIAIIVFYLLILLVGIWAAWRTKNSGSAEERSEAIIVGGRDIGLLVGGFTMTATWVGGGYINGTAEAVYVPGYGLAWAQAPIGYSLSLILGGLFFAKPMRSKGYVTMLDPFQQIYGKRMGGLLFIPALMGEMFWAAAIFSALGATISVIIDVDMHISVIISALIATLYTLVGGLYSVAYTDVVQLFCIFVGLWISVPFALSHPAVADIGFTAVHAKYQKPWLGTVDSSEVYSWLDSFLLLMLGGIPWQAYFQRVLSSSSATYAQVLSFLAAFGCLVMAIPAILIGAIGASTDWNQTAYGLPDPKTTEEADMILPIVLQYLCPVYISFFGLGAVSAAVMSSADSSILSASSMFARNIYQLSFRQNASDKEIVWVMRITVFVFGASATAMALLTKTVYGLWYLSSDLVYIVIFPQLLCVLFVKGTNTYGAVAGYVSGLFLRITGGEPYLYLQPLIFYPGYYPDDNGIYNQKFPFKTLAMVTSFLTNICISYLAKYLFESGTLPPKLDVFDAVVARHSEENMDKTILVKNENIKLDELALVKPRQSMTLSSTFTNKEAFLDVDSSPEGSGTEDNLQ

[2] = molecular target: T2, Sentrin-specific protease 6 (Homo sapiens, UniProt Q9GZR1); experiment: SAR Analysis of small molecule inhibitors of Sentrin-specific protease 6 (SENP6) using a Luminescent assay. [Related pubchem assays (depositor defined):AID2582, AID2599]; assay type: functional
T2 sequence (Q9GZR1 whole entry): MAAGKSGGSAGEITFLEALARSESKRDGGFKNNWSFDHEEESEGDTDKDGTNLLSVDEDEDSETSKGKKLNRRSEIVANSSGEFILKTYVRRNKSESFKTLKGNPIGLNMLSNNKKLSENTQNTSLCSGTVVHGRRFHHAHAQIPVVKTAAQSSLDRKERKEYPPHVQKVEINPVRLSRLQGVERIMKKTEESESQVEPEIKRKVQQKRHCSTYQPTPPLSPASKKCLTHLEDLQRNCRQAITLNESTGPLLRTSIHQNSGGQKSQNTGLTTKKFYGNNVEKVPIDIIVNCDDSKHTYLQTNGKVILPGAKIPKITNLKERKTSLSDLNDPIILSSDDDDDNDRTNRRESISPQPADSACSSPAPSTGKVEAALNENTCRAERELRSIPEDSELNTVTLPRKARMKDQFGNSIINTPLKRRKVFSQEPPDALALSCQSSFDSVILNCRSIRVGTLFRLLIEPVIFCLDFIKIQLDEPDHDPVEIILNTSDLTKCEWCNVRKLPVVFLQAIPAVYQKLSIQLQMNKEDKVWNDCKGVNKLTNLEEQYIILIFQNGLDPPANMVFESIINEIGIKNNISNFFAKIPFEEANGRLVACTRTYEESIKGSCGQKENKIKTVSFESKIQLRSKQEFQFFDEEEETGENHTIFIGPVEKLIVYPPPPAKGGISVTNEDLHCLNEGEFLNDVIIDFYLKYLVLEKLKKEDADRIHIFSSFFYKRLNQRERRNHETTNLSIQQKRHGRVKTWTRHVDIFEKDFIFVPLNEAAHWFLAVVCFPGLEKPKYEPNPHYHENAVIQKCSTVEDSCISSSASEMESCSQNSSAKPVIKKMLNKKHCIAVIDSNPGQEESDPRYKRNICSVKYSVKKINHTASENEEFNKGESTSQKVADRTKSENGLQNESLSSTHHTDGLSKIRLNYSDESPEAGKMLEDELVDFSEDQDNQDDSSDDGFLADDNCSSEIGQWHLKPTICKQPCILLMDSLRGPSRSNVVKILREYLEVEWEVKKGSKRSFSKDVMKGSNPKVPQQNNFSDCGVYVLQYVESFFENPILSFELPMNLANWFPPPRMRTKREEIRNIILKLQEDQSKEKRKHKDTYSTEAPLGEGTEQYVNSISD

Caspase-3 = molecular target: T3, Caspase-3 (Homo sapiens, UniProt P42574); experiment: SAR Analysis of small molecule inhibitors of Sentrin-specific proteases (SENPs) using a Caspase-3 Selectivity assay. [Related pubchem assays (depositor defined):AID2540, AID2599, AID434973, AID489001]; assay type: functional
T3 sequence (P42574 whole entry): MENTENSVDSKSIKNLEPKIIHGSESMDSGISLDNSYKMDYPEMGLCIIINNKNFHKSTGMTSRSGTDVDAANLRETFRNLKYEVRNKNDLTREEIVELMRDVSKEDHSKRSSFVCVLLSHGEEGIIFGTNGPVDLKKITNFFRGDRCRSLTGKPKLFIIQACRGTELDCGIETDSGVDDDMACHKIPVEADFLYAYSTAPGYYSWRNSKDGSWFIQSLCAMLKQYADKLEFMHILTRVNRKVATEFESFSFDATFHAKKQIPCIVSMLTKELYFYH

[3] = molecular target: T4, Sentrin-specific protease 8 (Homo sapiens, UniProt Q96LD8); experiment: SENP8 protease inhibitors, SAR follow-up, biochemical, luminescence (AID 504501); assay type: functional
T4 sequence (Q96LD8 whole entry): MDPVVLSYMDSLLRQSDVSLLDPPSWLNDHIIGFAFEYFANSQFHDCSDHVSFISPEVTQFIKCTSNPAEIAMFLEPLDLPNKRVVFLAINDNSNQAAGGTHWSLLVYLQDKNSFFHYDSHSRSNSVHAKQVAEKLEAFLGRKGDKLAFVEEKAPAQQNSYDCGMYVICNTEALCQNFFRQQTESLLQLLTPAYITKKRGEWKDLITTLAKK

[4] = molecular target: T5, Sentrin-specific protease 7 (Homo sapiens, UniProt Q9BQF6); experiment: SENP7 protease inhibitors, SAR follow-up, biochemical, luminescence (AID 504497); assay type: functional
T5 sequence (Q9BQF6 whole entry): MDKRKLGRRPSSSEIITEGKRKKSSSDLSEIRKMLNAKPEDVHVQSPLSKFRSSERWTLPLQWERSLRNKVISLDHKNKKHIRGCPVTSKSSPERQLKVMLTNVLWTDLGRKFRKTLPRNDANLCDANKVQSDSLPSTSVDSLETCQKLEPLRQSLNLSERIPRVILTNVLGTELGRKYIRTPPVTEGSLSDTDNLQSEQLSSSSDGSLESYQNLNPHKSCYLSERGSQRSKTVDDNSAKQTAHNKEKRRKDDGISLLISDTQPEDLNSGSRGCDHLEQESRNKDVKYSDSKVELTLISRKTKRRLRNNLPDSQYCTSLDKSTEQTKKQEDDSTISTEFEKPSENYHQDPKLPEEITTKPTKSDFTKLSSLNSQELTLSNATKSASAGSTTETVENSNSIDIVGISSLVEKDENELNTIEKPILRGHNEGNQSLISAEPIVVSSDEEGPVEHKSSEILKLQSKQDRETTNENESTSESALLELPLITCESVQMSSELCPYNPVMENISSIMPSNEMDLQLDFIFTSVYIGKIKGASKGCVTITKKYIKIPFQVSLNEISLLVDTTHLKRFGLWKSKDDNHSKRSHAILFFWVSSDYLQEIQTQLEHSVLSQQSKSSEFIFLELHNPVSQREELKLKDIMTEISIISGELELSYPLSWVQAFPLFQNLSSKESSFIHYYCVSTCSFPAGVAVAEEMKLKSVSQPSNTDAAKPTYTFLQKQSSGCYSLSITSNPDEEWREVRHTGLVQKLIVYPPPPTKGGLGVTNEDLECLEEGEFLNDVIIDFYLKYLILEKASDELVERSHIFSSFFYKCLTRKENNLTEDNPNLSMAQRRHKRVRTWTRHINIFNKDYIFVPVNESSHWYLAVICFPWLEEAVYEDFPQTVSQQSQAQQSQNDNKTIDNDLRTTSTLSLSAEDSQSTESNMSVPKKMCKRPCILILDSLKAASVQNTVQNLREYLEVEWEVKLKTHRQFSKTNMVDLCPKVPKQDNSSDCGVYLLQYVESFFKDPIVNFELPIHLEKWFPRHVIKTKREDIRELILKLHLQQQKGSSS

[5] = molecular target: Melanin-concentrating hormone receptor 1 (Homo sapiens, UniProt Q99705); experiment: Late-stage fluorescence-based counterscreen for antagonists of the G-protein coupled receptor 7 (GPR7): cell-based dose response assay to identify antagonists of the melanin-concentrating hormone receptor 1 (MCHR1) Set 5.; assay type: functional
[6] = molecular target: T6, Mitochondrial peptide methionine sulfoxide reductase (Bos taurus, UniProt P54149); assay type: functional;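 note: absorbance read-out, biochemical high-throughput dose-response screen for MsrA inhibitors, confirmatory; recombinant bovine MsrA coupled to E. coli TrxB with NADPH and selenocystamine; potency is for inhibitors of MsrA activity on DMSO substrate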
T6 sequence (P54149 whole entry): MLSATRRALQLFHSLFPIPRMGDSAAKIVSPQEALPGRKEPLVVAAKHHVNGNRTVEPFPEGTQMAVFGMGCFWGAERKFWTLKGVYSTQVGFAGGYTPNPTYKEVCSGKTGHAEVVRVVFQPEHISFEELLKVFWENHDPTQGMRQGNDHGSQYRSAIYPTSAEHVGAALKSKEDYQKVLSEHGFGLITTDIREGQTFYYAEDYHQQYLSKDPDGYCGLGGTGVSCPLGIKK

[7] = Luminescence Cell-Based Dose Confirmation HTS to Identify Inhibitors of Platelet Dense Granule Release. [Related pubchem assays: 1663 (Primary HTS), 1678 (Summary of Project)]; assay type: functional
[8] = molecular target: Luciferin 4-monooxygenase (Photinus pyralis, UniProt P08659); experiment: firefly luciferase enzyme inhibitors, dose response, biochemical, luminescence (AID 1891)
[9] = molecular target: T1, High affinity choline transporter 1; experiment: CHT inhibitors, dose response, cell-based, 10-point CRC, membrane potential dye (AID 588401); assay type: functional;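 note: membrane potential dye fluorescence of choline-evoked depolarization via CHT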
[10] = molecular target: T1, High affinity choline transporter 1; experiment: CHT inhibitors, dose response, cell-based, 5-point CRC, membrane potential dye (AID 504840); assay type: functional

Chain of Melanin-concentrating hormone receptor 1 (Q99705 whole entry): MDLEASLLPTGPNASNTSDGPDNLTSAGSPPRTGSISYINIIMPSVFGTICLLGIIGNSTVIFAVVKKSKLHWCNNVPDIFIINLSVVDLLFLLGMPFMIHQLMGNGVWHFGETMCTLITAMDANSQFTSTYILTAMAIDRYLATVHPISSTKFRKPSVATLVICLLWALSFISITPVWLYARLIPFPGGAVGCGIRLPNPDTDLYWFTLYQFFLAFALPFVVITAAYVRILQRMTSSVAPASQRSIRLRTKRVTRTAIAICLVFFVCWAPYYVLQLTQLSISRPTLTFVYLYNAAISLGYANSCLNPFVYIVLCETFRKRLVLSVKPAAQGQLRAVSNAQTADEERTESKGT
Chain of Luciferin 4-monooxygenase (P08659 whole entry): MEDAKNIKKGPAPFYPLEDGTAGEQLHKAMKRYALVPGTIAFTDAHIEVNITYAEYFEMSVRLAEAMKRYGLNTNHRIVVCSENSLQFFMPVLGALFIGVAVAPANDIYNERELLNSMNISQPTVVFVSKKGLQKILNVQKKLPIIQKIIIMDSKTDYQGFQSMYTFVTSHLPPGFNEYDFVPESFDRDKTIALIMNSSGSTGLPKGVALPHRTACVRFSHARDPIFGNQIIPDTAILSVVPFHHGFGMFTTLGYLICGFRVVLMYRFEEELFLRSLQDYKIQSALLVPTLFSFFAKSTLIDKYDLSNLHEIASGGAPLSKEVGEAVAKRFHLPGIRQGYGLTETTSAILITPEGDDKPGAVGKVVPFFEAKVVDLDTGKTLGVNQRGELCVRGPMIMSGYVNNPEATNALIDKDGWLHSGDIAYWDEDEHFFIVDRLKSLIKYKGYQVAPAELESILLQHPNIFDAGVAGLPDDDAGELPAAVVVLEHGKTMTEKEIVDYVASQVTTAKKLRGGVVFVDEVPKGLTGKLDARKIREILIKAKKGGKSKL

SMILES: C=CCOc1ccc(Br)cc1CNCCCN1CCOCC1
- EC50 [1]: 14.2 µM (active)

SMILES: COc1cc(C(=O)Nc2ccccc2F)ccc1OCc1ccc(Cl)cc1
- IC50 [2]: > 99 µM (inactive)
- IC50 (Caspase-3): > 99 µM (inactive)
- IC50 [3]: > 99 µM (inactive)
- IC50 [4]: > 99 µM (inactive)

SMILES: COc1ccc(Oc2c(Cl)cnn(Cc3cccc4ccccc34)c2=O)cc1F
- IC50 [5]: 2.47 µM (active)

SMILES: C/C(=N/O)c1cc(C(C)(C)C)c(O)c(C(C)(C)C)c1
- IC50 [6]: 155 µM (inactive)

SMILES: CCNC(=O)[C@H]1O[C@@H](n2cnc3c(N)nc(NCCc4ccc(CCC(=O)O)cc4)nc32)[C@H](O)[C@@H]1O
- EC50 [7]: < 0.088 µM (active)
- EC50 [8]: > 112 µM (not active)
- IC50 [9]: 0.807 µM (active)
- IC50 [10]: 0.915 µM (active)
